Experimental data: US11358969B2, “Indole AHR inhibitors and uses thereof” (Ikena Oncology, Inc., priority 2017, dated 2022)
Like-named read-outs stand apart in the source and are kept apart here.

Experiments:
AHR = molecular target: T1, AHR (UniProt P35869); experiment: DRE-Luciferase Reporter Assay (Alternate Method) (Example 1B); assay type: cell-based, murine or human; conditions: cell line and AHR activating ligand not specified
T1 construct: IC50
T1 sequence (P35869 1-848): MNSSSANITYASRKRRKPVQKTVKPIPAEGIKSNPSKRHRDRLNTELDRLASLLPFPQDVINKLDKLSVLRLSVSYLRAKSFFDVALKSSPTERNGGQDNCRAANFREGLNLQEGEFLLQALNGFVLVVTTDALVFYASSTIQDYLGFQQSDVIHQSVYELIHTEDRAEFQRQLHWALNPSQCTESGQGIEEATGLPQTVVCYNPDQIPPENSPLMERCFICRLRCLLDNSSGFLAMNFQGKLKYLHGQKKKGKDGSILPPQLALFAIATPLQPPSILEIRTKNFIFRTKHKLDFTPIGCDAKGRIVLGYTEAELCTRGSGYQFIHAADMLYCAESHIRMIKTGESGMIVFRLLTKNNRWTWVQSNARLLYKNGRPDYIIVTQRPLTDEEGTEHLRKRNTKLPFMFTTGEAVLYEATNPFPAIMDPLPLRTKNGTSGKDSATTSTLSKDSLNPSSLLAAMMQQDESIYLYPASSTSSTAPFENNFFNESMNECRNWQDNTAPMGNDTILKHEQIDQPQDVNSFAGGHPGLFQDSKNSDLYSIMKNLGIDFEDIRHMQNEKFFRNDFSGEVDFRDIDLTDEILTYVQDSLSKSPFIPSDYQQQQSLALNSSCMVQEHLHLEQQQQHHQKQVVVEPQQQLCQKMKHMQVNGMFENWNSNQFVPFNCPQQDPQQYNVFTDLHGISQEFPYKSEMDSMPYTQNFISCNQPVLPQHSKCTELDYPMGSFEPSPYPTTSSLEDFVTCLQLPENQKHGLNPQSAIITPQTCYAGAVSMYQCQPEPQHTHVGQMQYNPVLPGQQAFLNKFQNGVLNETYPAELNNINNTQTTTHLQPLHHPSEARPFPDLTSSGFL

[1] = In Vitro Mouse liver S9 Metabolic Stability Assay (Example 1D); assay type: in vitro ADME; conditions: CD-1 mouse liver S9, 1 μM compound, 1 mg/mL S9 protein, 37° C., NADPH regenerating system, UDPGA, PAPS
How it was run: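 Compound at 1 μM final (0.1% DMSO) incubated at 37° C with pooled CD-1 mouse liver S9 (1 mg/mL protein) plus NADPH-regenerating system, UDPGA and PAPS. Samples at 0 and 60 min quenched in cold acetonitrile with internal standard; LC-MS/MS analyte/IS peak-area ratios give % remaining at 60 min.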

Cyp1a1 = experiment: In Vivo Mouse liver and spleen Cyp1a1 Modulation Assay (Example 1E); parameters: species or system C57BL/6 mice; conditions: po, with AHR agonist VAG539 30 mg/kg po, qPCR
Description: C57BL/6 mice, female, 6-8 weeks old, weighing approximately 18-20 g were purchased from Shanghai Lingchang Biological Technology Co., Ltd or other certified vendors and used in the studies. Animal husbandry, feeding and health conditions are according to animal welfare guidelines. VAG539 (30 mg/kg, po) was used as AHRagonist, and test compounds were formulated in suitable vehicles, typically 0.5% methylcellulose).
C57BL/6 mice (n=3 per group) were treated with AHR agonist alone or with AHR agonist and test compounds. Animals were sacrificed at 4 or 10 hours after treatment upon which their livers and spleens were collected and subsequently analyzed by qPCR. Normalized fold induction of cyp1a1 was determined by comparing mCYP1A1 and mGAPDH counts (ct) according to: normalized fold=2^−ΔΔCt. The percent inhibition was calculated according to: […]

[2] = 4 h, read-out: Cyp1a1 inhibition, Liver, 4 h
[3] = 4 h, read-out: Cyp1a1 inhibition, Spleen, 4 h
[4] = 10 h, read-out: Cyp1a1 inhibition, Liver, 10 h

For CC(C)c1cnn2c(N[C@@H]3CCc4[nH]c5ccccc5c4C3)nc(-c3cncc(F)c3)nc12 [I-40, (3R)—N-[2-(5-Fluoro-3-pyridyl)-8-isopropyl-pyrazolo[1,5-a][1,3,5]triazin-4-yl]-2,3,4,9-tetrahydro-1H-carbazol-3-amine], the IC50 (AHR) was under 500 nM, the “Mouse S9 Stability: % Remaining After 60 Minutes” value [1] was 87% and the inhibition at 5 mg/kg (Cyp1a1; [2]) was 77%. It also gave an inhibition at 5 mg/kg (Cyp1a1; [3]) of 34%, an inhibition at 10 mg/kg (Cyp1a1; [2]) of 93% and an inhibition at 10 mg/kg (Cyp1a1; [3]) of 74%. For the same compound, the inhibition at 25 mg/kg (Cyp1a1; [2]) was 98%, the inhibition at 25 mg/kg (Cyp1a1; [3]) was 96% and the inhibition at 5 mg/kg (Cyp1a1; [4]) was 48%. The inhibition at 10 mg/kg (Cyp1a1; [4]) was 75% and the inhibition at 25 mg/kg (Cyp1a1; [4]) was 97%.

For CC(C)c1cnn2c(NCCc3c[nH]c4ccccc34)cc(-c3cncc(F)c3)nc12 [I-2, N-(2-(1H-indol-3-yl)ethyl)-5-(5-fluoropyridin-3-yl)-3-isopropylpyrazolo[1,5-a]pyrimidin-7-amine], the IC50 (AHR) was under 500 nM, the “Mouse S9 Stability: % Remaining After 60 Minutes” value [1] was 13% and the inhibition at 30 mg/kg (Cyp1a1; [2]) was 50%.

In the case of Cc1cnn2c(N[C@@H]3CCc4[nH]c5ccccc5c4C3)nc(-c3cncc(F)c3)nc12 [I-201, (3R)—N-[2-(5-fluoro-3-pyridyl)-8-methyl-pyrazolo[1,5-a][1,3,5]triazin-4-yl]-2,3,4,9-tetrahydro-1H-carbazol-3-amine], the IC50 (AHR) is reported as under 500 nM, the “Mouse S9 Stability: % Remaining After 60 Minutes” value [1] is reported as 34% and the inhibition at 5 mg/kg (Cyp1a1; [2]) is reported as 58%. It also gave an inhibition at 5 mg/kg (Cyp1a1; [3]) of 40%, an inhibition at 10 mg/kg (Cyp1a1; [2]) of 72% and an inhibition at 10 mg/kg (Cyp1a1; [3]) of 46%. It also gave an inhibition at 25 mg/kg (Cyp1a1; [2]) of 86%, an inhibition at 25 mg/kg (Cyp1a1; [3]) of 72% and an inhibition at 5 mg/kg (Cyp1a1; [4]) of 44%. For the same compound, the inhibition at 10 mg/kg (Cyp1a1; [4]) was 59% and the inhibition at 25 mg/kg (Cyp1a1; [4]) was 97%.

In the case of Cc1cnn2c(NCCc3c[nH]c4ccccc34)cc(-c3cncc(F)c3)nc12 [I-70, 5-(5-Fluoro-3-pyridyl)-N-[2-(1H-indol-3-yl)ethyl]-3-methyl-pyrazolo[1,5-a]pyrimidin-7-amine], the “Mouse S9 Stability: % Remaining After 60 Minutes” value [1] is reported as 0%, the inhibition at 1 mg/kg (Cyp1a1; [2]) is reported as 52% and the inhibition at 1 mg/kg (Cyp1a1; [3]) is reported as 38%. For the same compound, the inhibition at 2 mg/kg (Cyp1a1; [2]) was 83%, the inhibition at 2 mg/kg (Cyp1a1; [3]) was 65% and the inhibition at 5 mg/kg (Cyp1a1; [2]) was 93%. For the same compound, the inhibition at 5 mg/kg (Cyp1a1; [3]) was 79%, the inhibition at 10 mg/kg (Cyp1a1; [2]) was 99% and the inhibition at 10 mg/kg (Cyp1a1; [3]) was 88%. For the same compound, the inhibition at 30 mg/kg (Cyp1a1; [2]) was 98%, the inhibition at 1 mg/kg (Cyp1a1; [4]) was 34% and the inhibition at 2 mg/kg (Cyp1a1; [4]) was 63%. It also gave an inhibition at 5 mg/kg (Cyp1a1; [4]) of 96% and an inhibition at 10 mg/kg (Cyp1a1; [4]) of 81%.
